# Molecular target: T1, human thrombin (Homo sapiens, UniProt P00734)
# T1 construct: human thrombin, bovine thrombin, and Ancrod; purchased Sigma Chemical
# Experiment: Fibrinogen clotting assay (fibrometer) with thrombin
# Type: biochemical
# Details: final concentration of 10 U/ml
# Protocol: Fibrinogen clotting times (S=seconds) in the presence of varying concentrations (μM) of the peptide were determined with a fibrometer following addition of thrombin. Each concentration of peptide was assayed in triplicate. Error bars indicate standard deviations.
# All reagents were equilibrated to 37° C. before mixing.
substance,measurement,value
Heparin,effect on clotting time,no effect on clotting time
